The target of this assay is T1, Human ATX protein (Homo sapiens, UniProt Q13822).
T1 construct: made in house
The assay is described as follows: ATX biochemical FRET assay with FS-3 substrate. To be noted: ATX 1.0 μg/mL, 30 minutes pre-incubation, 2 hours at room temperature. The text has this:
ATX (Autotaxin) is a 125 KDa glycoprotein with lysophospholipase D (LPLD) activity that generates the bioactive lipid lysophosphatidic acid (LPA) from lysophosphatidylcholine (LPC). The ATX biochemical assay utilizes a FRET (fluorescence resonance energy transfer) technology platform. The fluorescence signal of FRET substrate FS-3 is quenched due to intra-molecular FRET of a fluorophore to a non-fluorescing quencher (Ferguson, C. G., et al., Org Lett. 2006 May 11; 8(10): 2023-2026, which is incorporated by reference in its entirety). ATX catalyzes the hydrolysis of the substrate which separates the dabsyl quencher from the fluorescein reporter, which becomes fluorescent. The reaction is monitored by a SpectraMax M5 (Molecular Devices, Sunnyvale, Calif.) with at excitation wavelength 485 nm and emission wavelength […].
Fatty acid free-BSA (Sigma A8806): 10 mg/mL in H2O, stored at 4° C.
2×ATX assay buffer: 100 mM Tris, 280 mM NaCl, 10 mM KCl, 2 mM CaCl2, 2 mM MgCl2, pH 7.4.
Human ATX protein: expressed and purified in house. Stored at −80° C.
Substrate FS-3 (Echelon, L-2000): 100 μg in 77.74 μL H2O (1 mM stock), stored at −20° C.
384-well flat bottom plates—Corning #3575.
Compound dilution—All compounds were provided at 10 mM in 100% DMSO. In the first well, 2 μL of 10 mM compound was added to 78 μL of DMSO (1:40 dilution). In subsequent wells 3-fold dilution (total 10 dilutions) were performed.
1×ATX assay buffer was made up with a final concentration of 1 mg/mL fatty acid free-BSA using 2×ATX assay buffer, 10 mg/ml fatty acid free-BSA and ddH2O.
ATX protein was diluted with 1×ATX assay buffer to a concentration of 1.32 μg/mL (1.32×). 38 μL was added per well to the assay plate. The final concentration of ATX in the reaction as 1.0 μg/mL.
2 μL per well of compounds was transferred to provide the desired concentration. The plate was centrifuged, then incubated at room temperature for 30 minutes on the shaker.
Then, 10 μL was added per well to the assay plate. […] The plate was centrifuged. The plate was kept shaking at room temperature for 2 hours. Because FS-3 substrate is light sensitive, plates were kept covered and protected from light.
Fluorescence was measured using SpectraMax M5 (excitation at 485 nm/emission at 538 nm, top read).

[1] abbreviates: FRET substrate FS-3 2 μM, read-out: IC50.

This is an account of results in patent US10017506B2, “ATX modulating agents” (BIOGEN MA INC., priority 2012, dated 2018).

Structures are written as SMILES. pIC50: −log10 of the molar value. Where two headings read alike, the source gives them in different places.

In turn, `CC(c1ccc2ccc(O[C@H]3CC[C@@H](C(F)(F)F)CC3)c(Cl)c2c1)N1C2CCCC1CC(C(=O)O)C2` (stereo partly drawn) [Example 30, 9-(1-(8-chloro-7-((cis-4-(trifluoromethyl)cyclohexyl)oxy)naphthalen-2-yl)ethyl)-9-azabicyclo[3.3.1]nonane-3-carboxylic acid] had a negative logarithm of the IC50 (pIC50) (IC50, FRET substrate FS-3 2 μM) not below 6.60.

In the case of `CCC(N[C@H]1C[C@@H](C(=O)O)C1(C)C)c1ccc2ccc(O[C@H]3CC[C@@H](C(F)(F)F)CC3)c(Cl)c2c1` (stereo partly drawn) [Example 32, (1R,3S)-3-((1-(8-chloro-7-((cis-4-(trifluoromethyl)cyclohexyl)oxy)naphthalen-2-yl)propyl)amino)-2,2-dimethylcyclobutanecarboxylic acid], the pIC50 under setting [1] is not below 6.30.

Turning to `N#Cc1c(O[C@H]2CC[C@@H](C(F)(F)F)CC2)ccc2ccc(CN3C4CCC3CC(C(=O)O)C4)cc12` (stereo partly drawn) [Example 34, 8-((8-cyano-7-((cis-4-(trifluoromethyl)cyclohexyl)oxy)naphthalen-2-yl)methyl)-8-azabicyclo[3.2.1]octane-3-carboxylic acid], the pIC50 (IC50, FRET substrate FS-3 2 μM) was not below 6.60.

On to `N#Cc1c(O[C@H]2CC[C@@H](C(F)(F)F)CC2)ccc2ccc(CN3C4CCCC3CC(C(=O)O)C4)cc12` (stereo partly drawn) [Example 35, 9-((8-cyano-7-((cis-4-(trifluoromethyl)cyclohexyl)oxy)naphthalen-2-yl)methyl)-9-azabicyclo[3.3.1]nonane-3-carboxylic acid], for which the pIC50 (IC50, FRET substrate FS-3 2 μM) was not below 6.60.

Regarding `CC(c1ccc2ccc(O[C@H]3CC[C@@H](C(F)(F)F)CC3)c(C#N)c2c1)N1C2CCC1CC(C(=O)O)C2` (stereo partly drawn) [Example 37, 8-(1-(8-cyano-7-((cis-4-(trifluoromethyl)cyclohexyl)oxy)naphthalen-2-yl)ethyl)-8-azabicyclo[3.2.1]octane-3-carboxylic acid], the pIC50 (IC50, FRET substrate FS-3 2 μM) was not below 7.00.

Turning to `CC(c1ccc2ccc(O[C@H]3CC[C@@H](C(F)(F)F)CC3)c(C#N)c2c1)N1C2CCCC1CC(C(=O)O)C2` (stereo partly drawn) [Example 38, 9-(1-(8-cyano-7-((cis-4-(trifluoromethyl)cyclohexyl)oxy)naphthalen-2-yl)ethyl)-9-azabicyclo[3.3.1]nonane-3-carboxylic acid], where the note is “IC50, FRET substrate FS-3 2 μM”, the pIC50 was not below 7.00.

In turn, `CCC(c1ccc2ccc(O[C@H]3CC[C@@H](C(F)(F)F)CC3)c(C#N)c2c1)N1C2CCC1CC(C(=O)O)C2` (stereo partly drawn) [Example 40, 8-(1-(8-cyano-7-((cis-4-(trifluoromethyl)cyclohexyl)oxy)naphthalen-2-yl)propyl)-8-azabicyclo[3.2.1]octane-3-carboxylic acid] had a pIC50 (IC50, FRET substrate FS-3 2 μM) not below 6.30.

Where the note is “IC50, FRET substrate FS-3 2 μM”, `CCC(c1ccc2ccc(O[C@H]3CC[C@@H](C(F)(F)F)CC3)c(C#N)c2c1)N1C2CCCC1CC(C(=O)O)C2` (stereo partly drawn) [Example 41, 9-(1-(8-cyano-7-((cis-4-(trifluoromethyl)cyclohexyl)oxy)naphthalen-2-yl)propyl)-9-azabicyclo[3.3.1]nonane-3-carboxylic acid] had a pIC50 not below 6.60.

In the case of `CC(c1ccc2ccc(O[C@H]3CC[C@@H](C(F)(F)F)CC3)c(C(F)F)c2c1)N1C2CCC1CC(C(=O)O)C2` (stereo partly drawn) [Example 42, 8-(1-(8-(difluoromethyl)-7-((cis-4-(trifluoromethyl)cyclohexyl)oxy)naphthalen-2-yl)ethyl)-8-azabicyclo[3.2.1]octane-3-carboxylic acid], for the setting “IC50, FRET substrate FS-3 2 μM”, the negative logarithm of the IC50 (pIC50) is not below 7.00.

For the molecule `O=C(O)C1CCN(Cc2ccc3ccc(O[C@H]4CC[C@@H](C(F)(F)F)CC4)c(C(F)(F)F)c3c2)CC1` [Example 43, 1-((8-(trifluoromethyl)-7-((cis-4-(trifluoromethyl)cyclohexyl)oxy)naphthalen-2-yl)methy 1)piperidine-4-carboxylic acid], the pIC50 under setting [1] was not below 6.30.

Turning to `CC(c1ccc2ccc(O[C@H]3CC[C@@H](C(F)(F)F)CC3)c(C(F)(F)F)c2c1)N1CCC(C(=O)O)CC1` (stereo partly drawn) [Example 44, 1-(1-(8-(trifluoromethyl)-7-((cis-4-(trifluoromethyl)cyclohexyl)oxy)naphthalen-2-yl)ethyl)piperidine-4-carboxylic acid], the pIC50 under setting [1] was not below 7.00.

With `CCC(c1ccc2ccc(O[C@H]3CC[C@@H](C(F)(F)F)CC3)c(C(F)(F)F)c2c1)N1CCC(C(=O)O)CC1` (stereo partly drawn) [Example 45, 1-(1-(8-(trifluoromethyl)-7-((cis-4-(trifluoromethyl)cyclohexyl)oxy)naphthalene-2-yl)propyl)piperidine-4-carboxylic acid], the negative-log IC50 (pIC50) under setting [1] was not below 6.60.

The molecule `[2H]C([2H])([2H])[C@@H](c1ccc2ccc(O[C@H]3CC[C@@H](C(F)(F)F)CC3)c(C(F)(F)F)c2c1)N1C2CCC1CC(C(=O)O)C2` (stereo partly drawn) [Example 46, 8-((S)-1-(8-(trifluoromethyl)-7-((cis-4-(trifluoromethyl)cyclohexyl)oxy)naphthalen-2-yl)-2,2,2-trideuteroethyl)-8-azabicyclo[3.2.1]octane-3-carboxylic acid] showed a negative-log IC50 (pIC50) (IC50, FRET substrate FS-3 2 μM) not below 7.00.

In turn, `CC[C@H]1CC[C@@H](Oc2ccc3ccc(CN4C5CCC4CC(C(=O)O)C5)cc3c2Cl)CC1` (stereo partly drawn) [Example 48, 8-((8-chloro-7-((cis-4-ethylcyclohexyl)oxy)naphthalen-2-yl)methyl)-8-azabicyclo[3.2.1]octane-3-carboxylic acid] gave a pIC50 (IC50, FRET substrate FS-3 2 μM) not below 7.00.

Consider `CC[C@H]1CC[C@@H](Oc2ccc3ccc(CN4CCC(C(=O)O)CC4)cc3c2C(F)(F)F)CC1` [Example 50, 1-((7-((cis-4-ethylcyclohexyl)oxy)-8-(trifluoromethyl)naphthalen-2-yl)methyl)piperidine-4-carboxylic acid], for which the pIC50 under setting [1] is not below 6.30.

For `CC[C@H]1CC[C@@H](Oc2ccc3ccc(CN4C5CCC4CC(C(=O)O)C5)cc3c2C(F)(F)F)CC1` (stereo partly drawn) [Example 51, 8-((7-((cis-4-ethylcyclohexyl)oxy)-8-(trifluoromethyl)naphthalen-2-yl)methyl)-8-azabicyclo[3.2.1]octane-3-carboxylic acid], the pIC50 (IC50, FRET substrate FS-3 2 μM) was not below 7.00.

For the setting “IC50, FRET substrate FS-3 2 μM”, `CC[C@H]1CC[C@@H](Oc2ccc3ccc(CN4C5CCCC4CC(C(=O)O)C5)cc3c2C(F)(F)F)CC1` (stereo partly drawn) [Example 52, 9-((7-((cis-4-ethylcyclohexyl)oxy)-8-(trifluoromethyl)naphthalen-2-yl)methyl)-9-azabicyclo[3.3.1]nonane-3-carboxylic acid] gave a pIC50 not below 7.00.

With `CC[C@H]1CC[C@@H](Oc2ccc3ccc(CN4CCC[C@H](CC(=O)O)C4)cc3c2C(F)(F)F)CC1` [Example 53, 2-((R)-1-((7-((cis-4-ethylcyclohexyl)oxy)-8-(trifluoromethyl)naphthalen-2-yl)methyl)piperidin-3-yl)acetic acid], under setting [1], the pIC50 was not below 6.30.

`CC[C@H]1CC[C@@H](Oc2ccc3ccc(CNC4CC(C(=O)O)C4(C)C)cc3c2C(F)(F)F)CC1` (stereo partly drawn) [Example 54, 3-(((7-((cis-4-ethylcyclohexyl)oxy)-8-(trifluoromethyl)naphthalen-2-yl)methyl)amino)-2,2-dimethylcyclobutanecarboxylic acid]: under setting [1], the pIC50 is not below 6.30.

Under “IC50, FRET substrate FS-3 2 μM”, `CC[C@H]1CC[C@@H](Oc2ccc3ccc(C(C)N4C5CCC4CC(C(=O)O)C5)cc3c2C(F)(F)F)CC1` (stereo partly drawn) [Example 55, 8-(1-(7-((cis-4-ethylcyclohexyl)oxy)-8-(trifluoromethyl)naphthalen-2-yl)ethyl)-8-azabicyclo[3.2.1]octane-3-carboxylic acid] showed a pIC50 not below 7.00.

Where the note is “IC50, FRET substrate FS-3 2 μM”, `CC[C@H]1CC[C@@H](Oc2ccc3ccc(C(C)N4C5CCCC4CC(C(=O)O)C5)cc3c2C(F)(F)F)CC1` (stereo partly drawn) [Example 56, 9-(1-(7-((cis-4-ethylcyclohexyl)oxy)-8-(trifluoromethyl)naphthalen-2-yl)ethyl)-9-azabicyclo[3.3.1]nonane-3-carboxylic acid] gave a pIC50 not below 7.00.
